How the values were obtained:
[1] = target: T1, Src (p60^c-src, partially purified) (Homo sapiens, UniProt P12931); assay: SRC-Inhibitor-Assay (time-resolved fluorescence), Src enzyme; type: biochemical; settings: ATP 5 μM, peptide 10 μM, enzyme 2.5 U/ml, pre-incubation 15 min at 15° C.
T1 construct: purchased Upstate (UBI)
Experimental: (§1) The activity of the compounds according to this invention as inhibitors for the src-family tyrosine kinases was shown by using the following assay.
(§2) SRC-Inhibitor-Assay Parameters:
(§3) • Reaction mixture: • ATP 5 μM • Peptide (R+Ja133-Ro): 10 μM • Ja133-Ro 196 nM • Ro 9.8 μM • PT66 230 ng/ml • Assay buffer: 4 mM MgCl2 • 2 mM TCEP • 50 mM HEPES • 0,1% Tween 20 • pH 7.3 • Enzyme: 2.5 U/ml • Inhibitor: max. 25 μM • min. 0.42 nM Material: • Eu-labelled phosphotyrosine antibody: -for Lck Cisbio Mab PT66-K, • for Src EG&G Wallac PT66 Eu-W1024 (all commercially available). • Peptides: Ro: NH2-A-E-E-E-I-Y-G-E-F-E-A-K-K-K-K-CONH2 (SEQ ID NO: 1), and • Ja133-Ro: Ja133-G-Aminocaprylic acid-A-E-E-E-I-Y-G-E-F-E-A-K-K-K-K-CONH2 (SEQ ID NO: 2), wherein Ja133 is LightCycler-Red 640-N-hydroxy succinimide ester; • whereby both peptides were synthesized by an optimized solid phase peptide synthesis protocol (Merrifield, Fed. Proc. Fed. Amer. Soc. Exp. Biol. 21 (1962) 412) on a Zinsser SMP350 peptide synthesizer. Shortly, the peptide was assembled on 160 mg (22.8 μmol scale) of a Rink-Linker modified polystyrene solid phase by repeatedly conjugating an twenty fold excess of aminoacids each protected by temporary piperidine labile Fmoc- and permanent acid labile tert-Bu-, BOC- and Otert-Bu-groups depending on the side chain function. The substrate sequence AEEEIYGEFEAKKKK (SEQ ID NO: 1) was N-terminal additionally mounted with the spacer amino acids Aminocaprylic acid and Glycin. After cleavage of the N-terminal temporary protecting group the still attached and protected peptide was labeled with a 1.5 fold amount of LightCycler-Red 640-N-hydroxy succinimide ester (purchased by Roche Diagnostics GmbH) and triethylamine. After 3 hrs. the resin was washed with Dimethylformamide and Isopropanol until the eluates of the blue resin got colo-rless. […] The substrate was finally isolated by a preparative reverse phase HPLC purification. The purification yielded 12.2 mg RP-HPLC single peak pure blue material (lyophilisate). The identity was proven by MALDI mass spectroscopy [2720.0]. • Enzymes: Upstate Lck (p56^lck, active), Upstate Src (p60^c-src, partially purified) were purchased from UBI. • Time-resolved Fluorescence Assay: Reader: Perkin Elmer, Wallac Viktor 1420-040 multilabel counter; Liquid handling system: Beckman Coulter, Biomek 2000. ATP, Tween 20, HEPES were purchased from Roche Molecular Biochemicals, MgCl2 and MnCl2 were purchased from Merck Eurolab, TCEP was purchased from Pierce, 384 Well low volume fluorescence plates was purchased from Falcon. Assay Description:
(§4) At first the enzyme is pre-incubated for 15 min. at 15° C. in aqueous solution with corresponding amounts of inhibitors according to this invention. Then the phosphorylation reaction is started by adding a reaction mixture, containing ATP, Peptide and PT66, and subsequent shaking. The proceeding of this reaction is immediately monitored using time resolved fluorescence spectroscopy in a suitable well plate reader.
(§5) The IC50-values can be obtained from the reaction rates by using a non-linear curve fit (Excelfit).

Lck (p56^lck, active) = target: T2, Lck (p56^lck, active) (Homo sapiens, UniProt P06239); assay: SRC-Inhibitor-Assay (time-resolved fluorescence), Lck enzyme; type: biochemical; settings: ATP 5 μM, peptide 10 μM, enzyme 2.5 U/ml, pre-incubation 15 min at 15° C.
T2 construct: purchased Upstate (UBI)
Experimental: as §1, §2, §3, §4, §5

T1 sequence (P12931 whole entry, species assumed): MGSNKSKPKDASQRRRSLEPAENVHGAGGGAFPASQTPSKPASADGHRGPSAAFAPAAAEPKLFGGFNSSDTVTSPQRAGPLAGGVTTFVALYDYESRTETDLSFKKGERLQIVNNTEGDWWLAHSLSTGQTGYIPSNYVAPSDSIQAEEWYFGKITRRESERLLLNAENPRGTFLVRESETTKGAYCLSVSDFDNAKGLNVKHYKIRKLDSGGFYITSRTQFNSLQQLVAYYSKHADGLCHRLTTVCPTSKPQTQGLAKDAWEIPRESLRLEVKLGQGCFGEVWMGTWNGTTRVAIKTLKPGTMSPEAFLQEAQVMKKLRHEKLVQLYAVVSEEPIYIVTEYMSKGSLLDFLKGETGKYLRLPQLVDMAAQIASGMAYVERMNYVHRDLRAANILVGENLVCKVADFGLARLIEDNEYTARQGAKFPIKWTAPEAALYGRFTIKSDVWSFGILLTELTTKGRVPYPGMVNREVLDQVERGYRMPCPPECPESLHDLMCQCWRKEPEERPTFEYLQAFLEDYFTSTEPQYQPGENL
T2 sequence (P06239 whole entry, species assumed): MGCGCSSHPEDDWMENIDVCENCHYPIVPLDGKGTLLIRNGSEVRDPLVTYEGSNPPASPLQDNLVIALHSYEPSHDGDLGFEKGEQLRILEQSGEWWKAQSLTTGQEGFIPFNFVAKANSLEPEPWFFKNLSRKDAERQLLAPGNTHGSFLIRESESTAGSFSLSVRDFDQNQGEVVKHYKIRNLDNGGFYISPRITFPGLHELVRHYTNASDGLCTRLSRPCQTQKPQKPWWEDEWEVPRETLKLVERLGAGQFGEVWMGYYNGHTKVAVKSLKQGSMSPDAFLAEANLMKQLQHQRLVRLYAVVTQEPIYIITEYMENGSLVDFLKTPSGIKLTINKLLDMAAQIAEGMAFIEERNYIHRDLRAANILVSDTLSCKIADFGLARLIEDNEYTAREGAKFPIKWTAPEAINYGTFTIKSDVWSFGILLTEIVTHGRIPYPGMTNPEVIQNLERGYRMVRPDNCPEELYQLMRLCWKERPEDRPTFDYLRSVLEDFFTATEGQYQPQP

Row | IC50 [1] [nM] | IC50 (Lck (p56^lck, active)) [nM] | Structure (SMILES)
1 | 24.8 | 68.4 | NC(=O)NNC(=O)c1nc2nc(Nc3ccc(F)cc3)ncc2cc1-c1ccccc1Br [Example 3-18, 1-[6-(2-Bromo-phenyl)-2-(4-fluoro-phenylamino)-pyrido[2,3-d]pyrimidine-7-carbonyl]semicarbazide]
2 | 165 | 256 | O=C(NCCNc1ccccn1)c1nc2nc(Nc3ccc(F)cc3)ncc2cc1-c1ccccc1Br [Example 3-36, 6-(2-Bromo-phenyl)-2-(4-fluoro-phenylamino)-pyrido[2,3-d]pyrimidine-7-carboxylic acid [2-(pyridin-2-ylamino)-ethyl]-amide]
3 | 1.6 | 3.7 | CCN(CC)CCOc1ccc(Nc2ncc3cc(-c4ccccc4Br)c(C(=O)NCCN(C)C)nc3n2)cc1 [Example 3-10, 6-(2-Bromo-phenyl)-2-[4-(2-diethylamino-ethoxy)-phenylamino]-pyrido[2,3-d]pyrimidine-7-carboxylic acid (2-dimethylamino-ethyl)-amide]
4 | 6.2 | 39.8 | CNCCNC(=O)c1nc2nc(Nc3ccc(F)cc3)ncc2cc1-c1ccccc1Br [Example 3-17, 6-(2-Bromo-phenyl)-2-(4-fluoro-phenylamino)-pyrido[2,3-d]pyrimidine-7-carboxylic acid (2-methylamino-ethyl)-amide]
5 | 44.7 | 96.9 | CN1CCCC1CCNC(=O)c1nc2nc(Nc3ccc(F)cc3)ncc2cc1-c1ccccc1Br (stereo not shown) [Example 3-33, 6-(2-Bromo-phenyl)-2-(4-fluoro-phenylamino)-pyrido[2,3-d]pyrimidine-7-carboxylic acid [2-(1-methyl-pyrrolidin-2-yl)-ethyl]-amide]
6 | 56.3 | 694 | NC(=O)c1c[nH]nc1NC(=O)c1nc2nc(Nc3ccc(F)cc3)ncc2cc1-c1ccccc1Br [Example 3-42, 6-(2-Bromo-phenyl)-2-(4-fluoro-phenylamino)-pyrido[2,3-d]pyrimidine-7-carboxylic acid (4-carbamoyl-1H-pyrazol-3-yl)-amide]
7 | 103 | 429 | O=C(N[C@@H]1CCNC1)c1nc2nc(Nc3ccc(F)cc3)ncc2cc1-c1ccccc1Br [Example 3-29, (R)-6-(2-Bromo-phenyl)-2-(4-fluoro-phenylamino)-pyrido[2,3-d]pyrimidine-7-carboxylic acid pyrrolidin-3-ylamide]
8 | 1 | 2.5 | CNCCNC(=O)c1nc2nc(Nc3ccc(N4CCOCC4)cc3)ncc2cc1-c1ccccc1Br [Example 3-44, 6-(2-Bromo-phenyl)-2-(4-morpholin-4-yl-phenylamino)-pyrido[2,3-d]pyrimidine-7-carboxylic acid (2-methylamino-ethyl)-amide]
9 | 4.4 | 12.5 | CCN(CC)CCOc1ccc(Nc2ncc3cc(-c4ccccc4Br)c(C(N)=O)nc3n2)cc1 [Example 3-2, 6-(2-Bromo-phenyl)-2-[4-(2-diethylamino-ethoxy)-phenylamino]-pyrido[2,3-d]pyrimidine-7-carboxylic acid amide]
10 | 66.1 | 774 | O=C(NC1CCNCC1)c1nc2nc(Nc3ccc(F)cc3)ncc2cc1-c1ccccc1Br [Example 3-11, 6-(2-Bromo-phenyl)-2-(4-fluoro-phenylamino)-pyrido[2,3-d]pyrimidine-7-carboxylic acid piperidin-4-ylamide]
11 | 62.4 | 289 | NC(=O)CNC(=O)c1nc2nc(Nc3ccc(F)cc3)ncc2cc1-c1ccccc1Br [Example 3-20, 6-(2-Bromo-phenyl)-2-(4-fluoro-phenylamino)-pyrido[2,3-d]pyrimidine-7-carboxylic acid carbamoylmethyl-amide]
12 | 8.8 | 18.8 | CS(=O)(=O)NCCNC(=O)c1nc2nc(Nc3ccc(OCCO)cc3)ncc2cc1-c1ccccc1Br [Example 7-18, 6-(2-bromo-phenyl)-2-[4-(2-hydroxy-ethoxy)-phenylamino]-pyrido[2,3-d]pyrimidine-7-carboxylic acid (2-methanesulfonylamino-ethyl)-amide]
13 | 0.9 | 12.1 | CN(C)CCNC(=O)c1nc2nc(Nc3ccc(N4CCOCC4)cc3)ncc2cc1-c1ccccc1Br [Example 3-9, 6-(2-Bromo-phenyl)-2-(4-morpholin-4-yl-phenylamino)-pyrido[2,3-d]pyrimidine-7-carboxylic acid (2-dimethylamino-ethyl)-amide]
14 | 3 | 23 | NC(=O)c1nc2nc(Nc3ccc(N4CCOCC4)cc3)ncc2cc1-c1ccccc1Br [Example 3-1, 6-(2-Bromo-phenyl)-2-(4-morpholin-4-yl-phenylamino)-pyrido[2,3-d]pyrimidine-7-carboxylic acid amide]
15 | 30.9 | 99.1 | O=C(NCCO)c1nc2nc(Nc3cccc(CO)c3)ncc2cc1-c1ccccc1Br [Example 7-4, 6-(2-bromo-phenyl)-2-(3-hydroxymethyl-phenylamino)-pyrido[2,3-d]pyrimidine-7-carboxylic acid (2-hydroxy-ethyl)-amide]
16 | 23.9 | 129 | CC(CNC(=O)c1nc2nc(Nc3ccc(F)cc3)ncc2cc1-c1ccccc1Br)N(C)C (stereo not shown) [Example 3-27, 6-(2-Bromo-phenyl)-2-(4-fluoro-phenylamino)-pyrido[2,3-d]pyrimidine-7-carboxylic acid (2-dimethylamino-propyl)-amide]
17 | 96.2 | 638 | CN1CCC(NC(=O)c2nc3nc(Nc4ccc(F)cc4)ncc3cc2-c2ccccc2Br)CC1 [Example 3-21, 6-(2-Bromo-phenyl)-2-(4-fluoro-phenylamino)-pyrido[2,3-d]pyrimidine-7-carboxylic acid (1-methyl-piperidin-4-yl)-amide]
18 | 81.4 | 189 | CC(=O)NCCNC(=O)c1nc2nc(Nc3ccc(F)cc3)ncc2cc1-c1ccccc1Br [Example 3-16, 6-(2-Bromo-phenyl)-2-(4-fluoro-phenylamino)-pyrido[2,3-d]pyrimidine-7-carboxylic acid (2-acetylamino-ethyl)-amide]
19 | 247 | 151 | CN(C)C(=O)CNC(=O)c1nc2nc(Nc3ccc(F)cc3)ncc2cc1-c1ccccc1Br [Example 3-30, 6-(2-Bromo-phenyl)-2-(4-fluoro-phenylamino)-pyrido[2,3-d]pyrimidine-7-carboxylic acid dimethylcarbamoylmethyl-amide]
20 | 16.2 | 99.7 | N#Cc1nc2nc(Nc3cccc(S(=O)(=O)CCO)c3)ncc2cc1-c1ccccc1Br [Example 4-6, 6-(2-Bromo-phenyl)-2-[3-(2-hydroxy-ethanesulfonyl)-phenylamino]-pyrido[2,3-d]pyrimidine-7-carbonitrile]
21 | 3.5 | 11.8 | CS(=O)(=O)NCCNC(=O)c1nc2nc(Nc3cccc(NS(C)(=O)=O)c3)ncc2cc1-c1ccccc1Br [Example 7-17, 6-(2-bromo-phenyl)-2-(3-methanesulfonylamino-phenylamino)-pyrido[2,3-d]pyrimidine-7-carboxylic acid (2-methanesulfonylamino-ethyl)-amide]
22 | 114 | 360 | COCCNC(=O)c1nc2nc(Nc3ccc(F)cc3)ncc2cc1-c1ccccc1Br [Example 3-13, 6-(2-Bromo-phenyl)-2-(4-fluoro-phenylamino)-pyrido[2,3-d]pyrimidine-7-carboxylic acid (2-methoxy-ethyl)-amide]
23 | 6.1 | 11.1 | COc1cccc(Nc2ncc3cc(-c4ccccc4Br)c(C(=O)NCCNS(C)(=O)=O)nc3n2)c1 [Example 7-20, 6-(2-bromo-phenyl)-2-(3-methoxy-phenylamino)-pyrido[2,3-d]pyrimidine-7-carboxylic acid (2-methanesulfonylamino-ethyl)-amide]

From US7163941B2, “Pyrido[2,3-d]pyrimidin-7-carboxylic acid derivatives, their manufacture and use as pharmaceutical agents” (Hoffmann-La Roche Inc., priority 2003, dated 2007)
